In US7062219B2, “Protein fragment complementation assays for high-throughput and high-content screening” (Odyssey Thera Inc., priority 1997, dated 2006):
Entries after “also recorded” stand apart in the source; their conditions may differ. Non-standard residues stand in square brackets, D forms with d. Residues, ends and D or L forms follow the SMILES beside them. Nle = CCCC[C@H](N)C(=O)O

How the values were obtained:
p50/p65 complex = assay: stable HEK293T p50/p65 YFP PCA cell line, nuclear translocation (N:C ratio); assay type: cell-based
Description: Stable cell lines represent the gold standard for HTS since the assays can be reconstructed at any time from frozen stocks of cells. […] First, cells were co-transfected with YFP[2]-p65 encoding vectors, and stable cell lines were selected using 100 micrograms/ml of Hygromycin B (Invitrogen). Selected cell lines were then transfected with YFP[1]-p50. Stable cell lines expressing YFP[1]-p50/YFP[2]-p65 were isolated following double antibiotic selection with 50 μg/ml Hygromycin B and 500 μg/ml Zeocin. Cell clones stably expressing the fusion genes were identified by immunoblot analysis and fluorescence microscopy. A single cell line of each transfectant was selected for further characterization. Fluorescence of these lines is stable over at least 25 passages (data not shown). A stable, MEK/ERK cell line—constructed as described below—was used as a control for TNF effects. Fugene 6 (Roche) was used for all the transfections according to manufacturer's directions. Cells stably expressing YFP[1]-p50/YFP[2]-p65 were seeded at 20,000 cells/well in black-walled poly-lysine coated 96 well plate (Greiner). Twenty-four hours later, the cells were incubated with human TNF-alpha (Roche) for 30 min. Nuclei were stained with Hoechst 33342 (Molecular Probes) at 10 micrograms/ml for 10 min. Cells were rinsed with HBSS (Invitrogen) and kept in the same buffer. Fluorescence was visualized and images were acquired using a Discovery-1 automated fluorescence imager (Molecular Devices, Inc.) equipped with excitation and emission filters 470/35 and 535/60, respectively. […] For the high throughput screening campaign described below, cells were pretreated with compounds (10 micromolar) for 60 minutes and then stimulated with TNFalpha for 30 minutes in the presence of drugs. Cells were then fixed with 2% formaldehyde in HBSS and subsequently stained with Hoechst 33342. All liquid handling was done using a Biomek FX (Beckman) instrument and images were acquired as described above. Images were analyzed using Image J. Translocation is assessed by calculating the nuclear/cytoplasmic ratio of the mean fluorescence intensity for a population of cells (denoted as n) over several images for a given condition.
Genesis Plus is a collection of 960 diverse compounds, and includes compounds with known toxicity or fluorescent properties. Inclusion of compounds with such properties is important in HTS assay validation, as they might complicate analysis. The final concentration of compounds in wells was 10 micromolar, and all wells contained 0.5% DMSO concentration. […] Following fixation and staining of nuclei, fluorescence was analyzed on the automated fluorescent microscopy platform (Discovery 1; Universal Imaging/Molecular Devices Corp.). […]

p65/p50 complex = assay: DHFR PCA for NFkB (p65/p50) translocation in CHO DUKXB11 cells; assay type: cell-based, mouse and human; conditions: 40 micrograms/ml ALLN
Description: Coding regions of NFkB subunits p65 and p50 (corresponding to N-terminal 436 amino acids) were PCR amplified from mouse and human cDNAs, respectively, and ligated in-frame downstream of a 15 amino acid flexible linker (GGGGS)3 (SEQ ID No.30) followed by DHFR fragment F[1,2] or F[3] in pCDNA3.1zeo (Invitrogen). IkBa was subcloned separately into pCDNA3.1. For transient expression of these genes, 8×10e4 DHFR-deficient CHO DXB11 cells were seeded into 12 well plates and transfected 24 hours later with [F1,2]-p65, [F3]-p50, and IkBa at the molar ratio of 1:1:1 for each fusion construct using Fugene (Boehringer Mannheim) according to manufacturer's instructions. For controls, where indicated, empty pCDNA3.1 was used in place of IkBa. A total of 1 microgram of DNA was used per well.
Forty-eight hours post-transfection, complexes of F[1,2]-p65 and [F3]-p50 were detected by fluorescence microscopy. […]
To examine the effect of proteasome inhibition on NFkB nuclear translocation, the transiently transfected cells expressing the DHFR PCA were treated with 40 micrograms/ml ALLN (Calbiochem) for 1 hr prior to TxR-MTX labeling and for the subsequent duration of the experiment. The cells were rinsed with PBS and the subcellular location of NFkB complexes were visualized using a Nikon Eclipse TE2000 fluorescence microscope at excitation and emission wavelengths of 580 nm and 625 nm, respectively. […]

CCCC[C@@H](C=O)NC(=O)[C@H](CC(C)C)NC(=O)[C@H](CC(C)C)NC(C)=O [ALLN] (Ac-Leu-Leu-[Nle]-aldehyde)
block of TNF-induced increases in the N:C ratio of p50/p65 complexes (p50/p65 complex; ALLN treatment for 4 hr): 76% | effect on the TNF response in the stable p65/p50 PCA cell line (in words) (p50/p65 complex; FIG. 12(B)): inhibition of the TNF response | effect on TNF-induced cytoplasmic-to-nuclear translocation of NFkB complexes in DHFR PCA (p65/p50 complex): inhibition of the nuclear translocation; also recorded: inhibits
